Test results: ChEMBL document CHEMBL4138175, “Newly designed organotin(IV) carboxylates with peptide linkage: Synthesis, structural elucidation, physicochemical characterizations and pharmacological investigations” (Eur J Med Chem, 2018)
Calls of active or inactive are those of the source. No cut-off for these calls is given here.

Tests used:
[1] = tested on: Klebsiella pneumoniae; assay: Antibacterial activity against Klebsiella pneumoniae assessed as zone of inhibition by measuring activity index after 24 to 48 hrs by well diffusion method relative to tetracycline; assay type: functional, organism-based
[2] = tested on: Staphylococcus aureus; assay: Antibacterial activity against Staphylococcus aureus assessed as zone of inhibition after 24 to 48 hrs by well diffusion method; assay type: functional
[3] = tested on: Klebsiella pneumoniae; assay: Antibacterial activity against Klebsiella pneumoniae assessed as zone of inhibition by measuring activity index after 24 to 48 hrs by well diffusion method relative to amoxicillin; assay type: functional, organism-based
[4] = tested on: Leishmania major; assay: Antileishmanial activity against Leishmania major promastigotes at 0.1 uM after 72 hrs by MTT assay relative to control; assay type: functional
[5] = tested on: Pseudomonas aeruginosa; assay: Antibacterial activity against Pseudomonas aeruginosa assessed as zone of inhibition by measuring activity index after 24 to 48 hrs by well diffusion method relative to amoxicillin; assay type: functional, organism-based
[6] = tested on: Serratia marcescens; assay: Antibacterial activity against Serratia marcescens assessed as zone of inhibition by measuring activity index after 24 to 48 hrs by well diffusion method relative to ampicillin; assay type: functional
[7] = tested on: Staphylococcus epidermidis; assay: Antibacterial activity against Staphylococcus epidermidis assessed as zone of inhibition by measuring activity index after 24 to 48 hrs by well diffusion method relative to tetracycline; assay type: functional, organism-based
[8] = tested on: Klebsiella pneumoniae; assay: Antibacterial activity against Klebsiella pneumoniae assessed as zone of inhibition after 24 to 48 hrs by well diffusion method; assay type: functional
[9] = tested on: Streptococcus pyogenes; assay: Antibacterial activity against Streptococcus pyogenes assessed as zone of inhibition after 24 to 48 hrs by well diffusion method; assay type: functional
[10] = tested on: Serratia marcescens; assay: Antibacterial activity against Serratia marcescens assessed as zone of inhibition after 24 to 48 hrs by well diffusion method; assay type: functional
[11] = tested on: NCI-H157; assay: Cytotoxicity against human NCI-H157 cells at 1 uM after 48 hrs by sulforhodamine B assay; assay type: functional
[12] = tested on: DNA; assay: Binding affinity to single-stranded DNA (unknown origin) assessed as red shift up to 72 uM after 10 mins by UV-visible spectrometric method; assay type: nucleic-acid assay
[13] = tested on: NCI-H157; assay: Cytotoxicity against human NCI-H157 cells at 0.1 uM after 48 hrs by sulforhodamine B assay; assay type: functional
[14] = tested on: Klebsiella pneumoniae; assay: Antibacterial activity against Klebsiella pneumoniae assessed as zone of inhibition by measuring activity index after 24 to 48 hrs by well diffusion method relative to ampicillin; assay type: functional, organism-based
[15] = tested on: NCI-H157; assay: Cytotoxicity against human NCI-H157 cells after 48 hrs by sulforhodamine B assay; assay type: functional, cell-based
[16] = tested on: Serratia marcescens; assay: Antibacterial activity against Serratia marcescens assessed as zone of inhibition by measuring activity index after 24 to 48 hrs by well diffusion method relative to penicillin G; assay type: functional
[17] = tested on: DNA; assay: Binding affinity to single-stranded DNA (unknown origin) after 10 mins by UV-visible spectrometric method; assay type: nucleic-acid assay
[18] = tested on: Pseudomonas aeruginosa; assay: Antibacterial activity against Pseudomonas aeruginosa assessed as zone of inhibition by measuring activity index after 24 to 48 hrs by well diffusion method relative to penicillin G; assay type: functional, organism-based
[19] = tested on: Pseudomonas aeruginosa; assay: Antibacterial activity against Pseudomonas aeruginosa assessed as zone of inhibition by measuring activity index after 24 to 48 hrs by well diffusion method relative to tetracycline; assay type: functional, organism-based
[20] = tested on: Pseudomonas aeruginosa; assay: Antibacterial activity against Pseudomonas aeruginosa assessed as zone of inhibition after 24 to 48 hrs by well diffusion method; assay type: functional
[21] = tested on: Staphylococcus epidermidis; assay: Antibacterial activity against Staphylococcus epidermidis assessed as zone of inhibition by measuring activity index after 24 to 48 hrs by well diffusion method relative to amoxicillin; assay type: functional, organism-based
[22] = tested on: Leishmania major; assay: Antileishmanial activity against Leishmania major promastigotes at 10 uM after 72 hrs by MTT assay relative to control; assay type: functional
[23] = tested on: DNA; assay: Binding affinity to single-stranded DNA (unknown origin) assessed as DNA intercalation by measuring increase in relative viscosity of DNA-compound complex by viscometry; assay type: nucleic-acid assay
[24] = tested on: NCI-H157; assay: Cytotoxicity against human NCI-H157 cells at 100 uM after 48 hrs by sulforhodamine B assay; assay type: functional
[25] = tested on: NCI-H157; assay: Cytotoxicity against human NCI-H157 cells at 10 uM after 48 hrs by sulforhodamine B assay; assay type: functional
[26] = tested on: Serratia marcescens; assay: Antibacterial activity against Serratia marcescens assessed as zone of inhibition by measuring activity index after 24 to 48 hrs by well diffusion method relative to amoxicillin; assay type: functional
[27] = tested on: Escherichia coli; assay: Antibacterial activity against Escherichia coli assessed as zone of inhibition after 24 to 48 hrs by well diffusion method; assay type: functional
[28] = tested on: Leishmania major; assay: Antileishmanial activity against Leishmania major promastigotes at 100 uM after 72 hrs by MTT assay relative to control; assay type: functional
[29] = tested on: Staphylococcus epidermidis; assay: Antibacterial activity against Staphylococcus epidermidis assessed as zone of inhibition after 24 to 48 hrs by well diffusion method; assay type: functional
[30] = tested on: Escherichia coli; assay: Antibacterial activity against Escherichia coli assessed as zone of inhibition by measuring activity index after 24 to 48 hrs by well diffusion method relative to tetracycline; assay type: functional
[31] = tested on: Leishmania major; assay: Antileishmanial activity against Leishmania major promastigotes at 1 uM after 72 hrs by MTT assay relative to control; assay type: functional
[32] = tested on: Escherichia coli; assay: Antibacterial activity against Escherichia coli assessed as zone of inhibition by measuring activity index after 24 to 48 hrs by well diffusion method relative to ampicillin; assay type: functional, organism-based
[33] = tested on: Escherichia coli; assay: Antibacterial activity against Escherichia coli assessed as zone of inhibition by measuring activity index after 24 to 48 hrs by well diffusion method relative to amoxicillin; assay type: functional, organism-based
[34] = tested on: Pseudomonas aeruginosa; assay: Antibacterial activity against Pseudomonas aeruginosa assessed as zone of inhibition by measuring activity index after 24 to 48 hrs by well diffusion method relative to ampicillin; assay type: functional, organism-based
[35] = tested on: Escherichia coli; assay: Antibacterial activity against Escherichia coli assessed as zone of inhibition by measuring activity index after 24 to 48 hrs by well diffusion method relative to penicillin G; assay type: functional, organism-based
[36] = tested on: Staphylococcus epidermidis; assay: Antibacterial activity against Staphylococcus epidermidis assessed as zone of inhibition by measuring activity index after 24 to 48 hrs by well diffusion method relative to penicillin G; assay type: functional, organism-based
[37] = tested on: Serratia marcescens; assay: Antibacterial activity against Serratia marcescens assessed as zone of inhibition by measuring activity index after 24 to 48 hrs by well diffusion method relative to tetracycline; assay type: functional, organism-based
[38] = tested on: Klebsiella pneumoniae; assay: Antibacterial activity against Klebsiella pneumoniae assessed as zone of inhibition by measuring activity index after 24 to 48 hrs by well diffusion method relative to penicillin G; assay type: functional, organism-based
[39] = tested on: Staphylococcus aureus; assay: Antibacterial activity against Staphylococcus aureus assessed as zone of inhibition by measuring activity index after 24 to 48 hrs by well diffusion method relative to amoxicillin; assay type: functional, organism-based
[40] = tested on: Staphylococcus aureus; assay: Antibacterial activity against Staphylococcus aureus assessed as zone of inhibition by measuring activity index after 24 to 48 hrs by well diffusion method relative to ampicillin; assay type: functional, organism-based
[41] = tested on: Staphylococcus aureus; assay: Antibacterial activity against Staphylococcus aureus assessed as zone of inhibition by measuring activity index after 24 to 48 hrs by well diffusion method relative to tetracycline; assay type: functional, organism-based
[42] = tested on: Staphylococcus epidermidis; assay: Antibacterial activity against Staphylococcus epidermidis assessed as zone of inhibition by measuring activity index after 24 to 48 hrs by well diffusion method relative to ampicillin; assay type: functional, organism-based
[43] = tested on: Staphylococcus aureus; assay: Antibacterial activity against Staphylococcus aureus assessed as zone of inhibition by measuring activity index after 24 to 48 hrs by well diffusion method relative to penicillin G; assay type: functional, organism-based

Row | Substance | Activity index [1] | inhibition zone (IZ) [2] | Activity index [3] | Activity [4] [%] | Activity index [5] | Activity index [6] | inhibition zone (IZ) [8] | inhibition zone (IZ) [9] [mm] | inhibition zone (IZ) [10] | Activity [11] [%] | Activity [13] [%] | Activity [15] | inhibition zone (IZ) [20] | Activity [22] [%] | Activity [24] [%] | Activity [25] [%] | inhibition zone (IZ) [27] | Activity [28] [%] | inhibition zone (IZ) [29] | Activity [31] [%] | other results
1 | Trimethylstannyl 2-(4-methoxy-2-nitrophenylcarbamoyl)benzoate | 1.44 | 4.66 mm | 3.44 | 58.8 | 2.61 | 1.67 | 20.2 mm | 7.33 | 13.3 mm | 58.2 | 54.4 | Dose-dependent effect | 15.7 mm | 66.5 | 66.4 | 62.3 | 16.7 mm | 67.8 | 10.3 mm | 62.9 | Activity index [7]: 1.03; Activity [12]: < 3 nm; Activity index [14]: 3.44; Activity index [16]: 1.67; K [17]: 4.2 ×10³ /M; Activity index [18]: 2.61; Activity index [19]: 2.61; Activity index [21]: 5.17; Activity [23]: Active; Activity index [26]: 2.22; Activity index [30]: 8.33
2 | Triethylstannyl 2-(4-methoxy-2-nitrophenylcarbamoyl)benzoate | 1.98 | 19.3 mm | 4.61 | 45.3 | – | 1.92 | 27.7 mm | 15.7 | 15.3 mm | 43.7 | 39.8 | Dose-dependent effect | inactive | 53.2 | 62.4 | 57.4 | inactive | 56.4 | 11 mm | 49.4 | Activity_index [32]: inactive; Activity index [7]: 1.1; Activity [12]: < 3 nm; Activity index [14]: 4.61; Activity index [16]: 1.92; K [17]: 9.3 ×10³ /M; Activity_index [33]: inactive; Activity index [21]: 5.5; Activity [23]: Active; Activity index [26]: 2.55; Activity_index [34]: inactive; Activity_index [35]: inactive
3 | Diphenylstannanediyl bis 2-(4-methoxy-2-nitrophenylcarbamoyl)benzoate | – | inactive | – | 56.6 | 1.67 | – | inactive | 7.33 | inactive | 59.6 | 55.5 | Dose-dependent effect | 10 mm | 65.5 | 73.9 | 67.1 | inactive | 71.2 | inactive | 60.4 | Activity_index [32]: inactive; Activity_index [36]: inactive; Activity_index [37]: inactive; Activity index [18]: 1.67; Activity index [19]: 1.67; Activity_index [33]: inactive; Activity_index [38]: inactive; Activity_index [39]: inactive; Activity_index [40]: inactive; Activity_index [41]: inactive; Activity_index [42]: inactive; Activity_index [35]: inactive; Activity_index [43]: inactive
